# Source: PMC13070491, “Single-nucleus transcriptomics, pharmacokinetics, and pharmacodynamics of CDK4/6 and mTOR inhibition in a Phase 0/1 trial of recurrent high-grade glioma” (Neuro-Oncology, 2025)
# System: GB126, GB239 and GB86 patient-derived cell lines
# Assay: In vitro single-cell RNA sequencing, analyses across the cell lines (pseudobulk differential gene expression, GSEA, non-cycling cells)
# Format: cell-based, human
# Conditions: pseudobulk, ribociclib versus control (DMSO)
# Experimental: Patient-derived glioma stem cell lines (GSCs; GB126, GB86, and GB239) were established from resected GBM tumor tissue. Cell lines were genetically profiled for mutations and copy number aberrations using the IvySeq custom gene panel. […] GB239 was derived from a tumor sample included in this Phase 0 trial (tumor sample: 100-0039). All human GSCs were cultured as described previously.[12]
# Following the fifth day of drug exposure, cells were harvested, cryopreserved to be processed at a later point, or immediately processed for single-cell RNA sequencing (10x Genomics, 3’ version 3). The single-cell RNA sequencing data were then processed via cellranger count and Seurat. Briefly, cells were filtered out based on the following criteria: minimum number of genes detected >500 and <10 000 with a maximum percentage of mitochondrial genes set to 10%. Statistical assessment was made between the malignant proportions of each cell state using a 2-sided paired t-test.
# Descriptive statistics of the clinical data are included in Table 1. Comparisons between groups were conducted using a 2-sided or paired 2-sided t-test, where indicated. P < .05 was considered significant. Multiple hypothesis test corrections (ie, false discovery rate correction) were applied for snRNAseq pseudobulk differential expression analysis.
smiles,measurement,setting,value
CN(C)C(=O)c1cc2cnc(Nc3ccc(N4CCNCC4)cn3)nc2n1C1CCCC1 [ribo],log2FoldChange RTP4,gene RTP4,2.131
same,log2FoldChange,gene SAC3D1,-1.1095
same,log2FoldChange SEC16B,gene SEC16B,1.622
same,log2FoldChange,gene SGO1,-1.732
same,log2FoldChange,gene SHISA8,-1.822
same,log2FoldChange,gene SLC2A4RG,-1.127
same,log2FoldChange SNCG,gene SNCG,1.82
same,log2FoldChange,gene SNRPB,-1.13
same,log2FoldChange SP6,gene SP6,1.619
same,log2FoldChange SPTBN5,gene SPTBN5,1.5798
same,log2FoldChange,gene STARD8,-1.058
same,log2FoldChange,gene TCF19,-1.684
same,log2FoldChange,gene TEKT2,-1.108
same,log2FoldChange TEKT4,gene TEKT4,1.53
same,log2FoldChange TEX29,gene TEX29,1.88
same,log2FoldChange TLR8,gene TLR8,1.7124
same,log2FoldChange TM4SF4,gene TM4SF4,1.515
same,log2FoldChange TMEM88,gene TMEM88,1.467
same,log2FoldChange,gene TMPO,-1.685
same,log2FoldChange,gene TNFRSF13C,-1.634
same,log2FoldChange,gene TRPC3,-1.603
same,log2FoldChange,gene TUBA1B,-1.731
same,log2FoldChange TUSC7,gene TUSC7,1.959
same,log2FoldChange,gene TYMSOS,-1.808
same,log2FoldChange,gene UBE2S,-1.812
same,log2FoldChange,gene UHRF1,-1.689
same,log2FoldChange,gene WDR62,-1.744
same,log2FoldChange,gene XRCC2,-1.646
same,log2FoldChange ZCCHC23,gene ZCCHC23,1.565
same,"log2FoldChange, feature AC004835.1",,-1.938
same,"log2FoldChange, feature AC011139.1",,-2.033
same,"log2FoldChange, feature AC020658.4",,-2.697
same,"log2FoldChange, feature AC027277.1",,-2.37
same,"log2FoldChange, feature AC027627.1",,-3.761
same,"log2FoldChange, feature AC079753.2",,-3.036
same,"log2FoldChange, feature AC084757.2",,-2.199
same,"log2FoldChange, feature AC087721.1",,-2.244
same,"log2FoldChange, feature AC097534.1",,-1.917
same,"log2FoldChange, feature AC099845.1",,-2.325
same,"log2FoldChange, feature AF233439.1",,-2.426
same,"log2FoldChange, feature AL023803.2",,-2.112
same,"log2FoldChange, feature AL136528.1",,-3.4157
same,"log2FoldChange, feature AL606468.1",,-2.361
same,"log2FoldChange, feature AL606500.1",,-4.456
same,"log2FoldChange, feature ANLN",,-2.17
same,"log2FoldChange, feature APOLD1",,-2.2948
same,"log2FoldChange, feature ARHGEF16",,-2.5327
same,"log2FoldChange, feature ARHGEF39",,-2.785
same,"log2FoldChange, feature ASF1B",,-2.413
same,"log2FoldChange, feature ASPM",,-2.923
same,"log2FoldChange, feature AURKA",,-1.946
same,"log2FoldChange, feature AURKB",,-5.69
same,"log2FoldChange, feature BIRC5",,-4.128
same,"log2FoldChange, feature BUB1B",,-2.255
same,"log2FoldChange, feature C1QL1",,-2.176
same,"log2FoldChange, feature CCNA1",,-1.944
same,"log2FoldChange, feature CCNA2",,-3.66
same,"log2FoldChange, feature CCNB1",,-2.309
same,"log2FoldChange, feature CCNB2",,-2.58
same,"log2FoldChange, feature CDC20",,-2.615
same,"log2FoldChange, feature CDC25C",,-2.251
same,"log2FoldChange, feature CDC45",,-1.967
same,"log2FoldChange, feature CDCA2",,-2.288
same,"log2FoldChange, feature CDCA3",,-4.424
same,"log2FoldChange, feature CDCA5",,-2.481
same,"log2FoldChange, feature CDCA8",,-2.683
same,"log2FoldChange, feature CDK1",,-3.117
same,"log2FoldChange, feature CDT1",,-2.6933
same,"log2FoldChange, feature CENPE",,-2.304
same,"log2FoldChange, feature CENPF",,-2.646
same,"log2FoldChange, feature CENPM",,-2.763
same,"log2FoldChange, feature CENPU",,-1.962
same,"log2FoldChange, feature CEP55",,-2.857
same,"log2FoldChange, feature CIT",,-1.908
same,"log2FoldChange, feature CKAP2L",,-3.667
same,"log2FoldChange, feature COL2A1",,-2.114
same,"log2FoldChange, feature CSRP3-AS1",,-2.408
same,"log2FoldChange, feature DEPDC1",,-2.44
same,"log2FoldChange, feature DHRS2",,-3.141
same,"log2FoldChange, feature DIAPH3",,-2.737
same,"log2FoldChange, feature DIAPH3-AS1",,-2.318
same,"log2FoldChange, feature DLGAP5",,-4.307
same,"log2FoldChange, feature DUSP9",,-1.8912
same,"log2FoldChange, feature E2F1",,-2.143
same,"log2FoldChange, feature E2F2",,-2.717
same,"log2FoldChange, feature E2F7",,-1.962
same,"log2FoldChange, feature E2F8",,-4.471
same,"log2FoldChange, feature EMILIN3",,-2.469
same,"log2FoldChange, feature ESCO2",,-3.335
same,"log2FoldChange, feature ESPL1",,-2.787
same,"log2FoldChange, feature EXO1",,-2.588
same,"log2FoldChange, feature FAM72C",,-1.941
same,"log2FoldChange, feature FAM83D",,-2.106
same,"log2FoldChange, feature FAM111B",,-3.61
same,"log2FoldChange, feature FBLN7",,-2.095
same,"log2FoldChange, feature FBXO5",,-2.254
same,"log2FoldChange, feature FOXM1",,-3.356
same,"log2FoldChange, feature FOXN4",,-2.7907
same,"log2FoldChange, feature GTSE1",,-3.691
same,"log2FoldChange, feature H2AFX",,-1.9706
same,"log2FoldChange, feature HIST1H1B",,-4.86
same,"log2FoldChange, feature HIST1H1D",,-3.125
same,"log2FoldChange, feature HIST1H1E",,-2.149
same,"log2FoldChange, feature HIST1H2AB",,-3.666
same,"log2FoldChange, feature HIST1H2AD",,-2.176
same,"log2FoldChange, feature HIST1H2AG",,-3.09
same,"log2FoldChange, feature HIST1H2AH",,-3.181
same,"log2FoldChange, feature HIST1H2AI",,-3.193
same,"log2FoldChange, feature HIST1H2AJ",,-3.606
same,"log2FoldChange, feature HIST1H2AK",,-2.038
same,"log2FoldChange, feature HIST1H2AL",,-4.067
same,"log2FoldChange, feature HIST1H2AM",,-2.962
same,"log2FoldChange, feature HIST1H2BB",,-4.24
same,"log2FoldChange, feature HIST1H2BF",,-2.791
same,"log2FoldChange, feature HIST1H2BH",,-2.674
same,"log2FoldChange, feature HIST1H2BI",,-3.141
same,"log2FoldChange, feature HIST1H2BK",,-2.1572
same,"log2FoldChange, feature HIST1H2BL",,-3.055
same,"log2FoldChange, feature HIST1H2BM",,-3.899
same,"log2FoldChange, feature HIST1H2BO",,-4.102
same,"log2FoldChange, feature HIST1H3A",,-2.494
same,"log2FoldChange, feature HIST1H3B",,-4.012
same,"log2FoldChange, feature HIST1H3C",,-3.43
same,"log2FoldChange, feature HIST1H3D",,-3.164
same,"log2FoldChange, feature HIST1H3F",,-4.011
same,"log2FoldChange, feature HIST1H3G",,-5.89
same,"log2FoldChange, feature HIST1H3I",,-2.396
same,"log2FoldChange, feature HIST1H4A",,-2.4627
same,"log2FoldChange, feature HIST1H4B",,-3.363
same,"log2FoldChange, feature HIST1H4C",,-2.564
same,"log2FoldChange, feature HIST1H4D",,-2.3219
same,"log2FoldChange, feature HIST1H4L",,-3.364
same,"log2FoldChange, feature HIST2H2AA4",,-2.973
same,"log2FoldChange, feature HIST2H2AB",,-2.432
same,"log2FoldChange, feature HIST2H2AC",,-2.094
same,"log2FoldChange, feature HIST2H3D",,-3.112
same,"log2FoldChange, feature HIST2H4B",,-3.0547
same,"log2FoldChange, feature HJURP",,-3.812
same,"log2FoldChange, feature HMGB2",,-3.4975
same,"log2FoldChange, feature HMGN2",,-1.988
same,"log2FoldChange, feature HMMR",,-2.398
same,"log2FoldChange, feature HMMR-AS1",,-1.986
same,"log2FoldChange, feature IQGAP3",,-3.825
same,"log2FoldChange, feature KIF2C",,-3.46
same,"log2FoldChange, feature KIF4A",,-3.264
same,"log2FoldChange, feature KIF11",,-2.445
same,"log2FoldChange, feature KIF14",,-1.93
same,"log2FoldChange, feature KIF15",,-2.295
same,"log2FoldChange, feature KIF18B",,-3.458
same,"log2FoldChange, feature KIF20A",,-5.621
same,"log2FoldChange, feature KIF23",,-2.582
same,"log2FoldChange, feature KIFC1",,-3.063
same,"log2FoldChange, feature KNL1",,-2.569
same,"log2FoldChange, feature LHX2",,-2.082
same,"log2FoldChange, feature LINC00243",,-2.438
same,"log2FoldChange, feature LINC01647",,-5.161
same,"log2FoldChange, feature LINC01775",,-2.182
same,"log2FoldChange, feature LMNB1",,-1.981
same,"log2FoldChange, feature MCM10",,-2.2
same,"log2FoldChange, feature MELK",,-2.093
same,"log2FoldChange, feature MIR924HG",,-2.274
same,"log2FoldChange, feature MKI67",,-6.243
same,"log2FoldChange, feature MUC22",,-3.844
same,"log2FoldChange, feature MXD3",,-2.803
same,"log2FoldChange, feature MYB",,-2.501
same,"log2FoldChange, feature MYBL2",,-3.875
same,"log2FoldChange, feature NCAPG",,-2.9227
same,"log2FoldChange, feature NCAPH",,-2.746
same,"log2FoldChange, feature NDC80",,-2.667
same,"log2FoldChange, feature NEIL3",,-3.743
same,"log2FoldChange, feature NEK2",,-3.576
same,"log2FoldChange, feature NEURL1B",,-1.929
same,"log2FoldChange, feature NMU",,-2.574
same,"log2FoldChange, feature NRM",,-1.8865
same,"log2FoldChange, feature NRTN",,-3.311
same,"log2FoldChange, feature NT5DC4",,-2.34
same,"log2FoldChange, feature NUSAP1",,-3.196
same,"log2FoldChange, feature NXPH2",,-2.198
same,"log2FoldChange, feature PAK6",,-1.969
same,"log2FoldChange, feature PAPOLB",,-2.347
same,"log2FoldChange, feature PBK",,-3.281
same,"log2FoldChange, feature PCLAF",,-3.5822
same,"log2FoldChange, feature PCNA",,-1.969
same,"log2FoldChange, feature PIF1",,-3.124
same,"log2FoldChange, feature PIMREG",,-3.009
same,"log2FoldChange, feature PKMYT1",,-2.904
same,"log2FoldChange, feature PLK1",,-3.608
same,"log2FoldChange, feature PRC1",,-2.44
same,"log2FoldChange, feature PRIM1",,-2.274
same,"log2FoldChange, feature PTTG1",,-2.767
same,"log2FoldChange, feature RAD51AP1",,-1.918
same,"log2FoldChange, feature RAD54L",,-1.967
same,"log2FoldChange, feature RPP25",,-1.919
same,"log2FoldChange, feature RRM2",,-5.156
same,"log2FoldChange, feature SAPCD2",,-1.989
same,"log2FoldChange, feature SDC1",,-2.261
same,"log2FoldChange, feature SHCBP1",,-2.035
same,"log2FoldChange, feature SKA1",,-3.026
same,"log2FoldChange, feature SLC7A3",,-2.68
same,"log2FoldChange, feature SPAG5",,-2.024
same,"log2FoldChange, feature SPC24",,-2.603
same,"log2FoldChange, feature SPC25",,-3.836
same,"log2FoldChange, feature TACC3",,-2.439
same,"log2FoldChange, feature TICRR",,-2.318
same,"log2FoldChange, feature TK1",,-2.815
same,"log2FoldChange, feature TMPO-AS1",,-2.127
same,"log2FoldChange, feature TMSB15A",,-2.211
same,"log2FoldChange, feature TOP2A",,-4.082
same,"log2FoldChange, feature TP73",,-3.442
same,"log2FoldChange, feature TPX2",,-2.42
same,"log2FoldChange, feature TROAP",,-3.212
same,"log2FoldChange, feature TTK",,-1.967
same,"log2FoldChange, feature TYMS",,-2.957
same,"log2FoldChange, feature UBE2C",,-3.754
same,"log2FoldChange, feature UBE2T",,-1.955
same,"log2FoldChange, feature WDR76",,-2.235
same,"log2FoldChange, feature ZWINT",,-1.901
